Here are results for six compounds from patent publication US20050282810A1, “Oxindole derivatives” (priority 2000, published 2005).

One data set deals with T1, TrkA (Homo sapiens, UniProt P04629).
T1 construct: The enzyme is a GST-fusion of the intracellular domain expressed in SF9 cells; GST; host or cells: SF9 insect cells
T1 sequence (P04629 440-796 limits assumed, species assumed): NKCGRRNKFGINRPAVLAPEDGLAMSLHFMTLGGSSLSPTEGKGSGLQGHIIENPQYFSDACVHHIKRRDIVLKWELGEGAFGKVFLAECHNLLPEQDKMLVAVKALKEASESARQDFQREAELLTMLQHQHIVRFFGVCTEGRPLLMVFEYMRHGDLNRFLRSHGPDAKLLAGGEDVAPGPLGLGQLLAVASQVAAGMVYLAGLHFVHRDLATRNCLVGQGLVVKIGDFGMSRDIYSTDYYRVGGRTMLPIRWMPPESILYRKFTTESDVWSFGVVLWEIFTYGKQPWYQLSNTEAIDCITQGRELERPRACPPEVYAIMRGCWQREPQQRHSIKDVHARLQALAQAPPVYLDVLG
The data set is described as follows: TrkA tyrosine kinase substrate phosphorylation assay (Src peptide, 33P-ATP, p81 filter plates). The format is biochemical. Particulars: GST-fusion of TrkA intracellular domain, 30 uM ATP, 50 uM Src peptide, RT 120 min. On the procedure:
The compounds of the present invention have valuable pharmacologic properties. Different compounds from this class are particularly effective at inhibiting the trkA kinase enzyme at concentrations that range from 0.0001 to 1 μM and additionally show specificity relative to other kinases. Substrate phosphorylation assays were carried out as follows:
Screening format: Tyrosine kinase activity is being measured using a synthetic peptide substrate. The enzyme is a GST-fusion of the intracellular domain expressed in SF9 cells. The enzyme is expressed and purified by Regeneron. The enzyme is preincubated with cold ATP and Mg to allow autophosphorylation prior to running the screen. This increases the initial rate of catalysis approximately 3 fold. The assay is performed in 96 well microtitre plates, and reaction products are detected following filtration through millipore p81 phosphocellulose plates.
The term IC50 denotes the concentration needed to halve the response being measured. As to `O=C1Nc2ccccc2/C1=C/Nc1ccc2[nH]c(=O)[nH]c2c1` [Example 1, 5-{[(Z)-(2-oxo-1,2-dihydro-3H-indol-3-ylidene)methyl]amino}-1,3-dihydro-2H-benzimidazol-2-one], the 50% inhibitory concentration (IC50) is under 10 nM. Same read-out and setting: the figure for `O=C1Nc2ccccc2/C1=C/Nc1ccc(-n2cncn2)cc1` [Example 2, (3Z)-3-{[4-(1H-1,2,4-triazol-1-yl)anilino]-methylene}-1,3-dihydro-2H-indol-2-one] is under 10 nM; for `CCC1(c2ccc(N/C=C3\C(=O)Nc4ccccc43)cc2)CCC(=O)NC1=O` (stereo not shown) [Example 3, 3-ethyl-3-(4-{[(Z)-(2-oxo-1,2-dihydro-3H-indol-3-ylidene)methyl]amino}phenyl)-2,6-piperidinedione] it is under 10 nM; for `Nc1nnc(-c2cccc(N/C=C3\C(=O)Nc4ccc5[nH]nnc5c43)c2)o1` [Example 4, (8Z)-8-{[3-(5-amino-1,3,4-oxadiazol-2-yl)anilino]methylene}-6,8-dihydro[1,2,3]triazolo[4,5-e]indol-7(3H)-one] it is under 10 nM. On the same count and under the same terms, the same measure for `NC(=O)Cc1ccc(N/C=C2\C(=O)Nc3ccccc32)cc1` [Example 5, 2-(4-{[(Z)-(2-oxo-1,2-dihydro-3H-indol-3-ylidene)methyl]amino}phenyl)acetamide]: 10 to 100 nM; for `O=C1Nc2ccccc2/C1=C/Nc1ccc(-c2nc[nH]n2)cc1` [Example 6, (3Z)-3-{[4-(1H-1,2,4-triazol-3-yl)anilino]methylene}-1,3-dihydro-2H-indol-2-one]: 10 to 100 nM.

System in a further data set: not given
Experiment: not given
Settings: not given
By melting point is commonly meant the temperature of the solid-liquid transition. The compound `NC(=O)Cc1ccc(N/C=C2\C(=O)Nc3ccccc32)cc1` [Example 5, 2-(4-{[(Z)-(2-oxo-1,2-dihydro-3H-indol-3-ylidene)methyl]amino}phenyl)acetamide] came in with a melting point of over 250 °C.
